From US7825264B2, “Substituted heterocycles, their use as medicament, and pharmaceutical preparations comprising them” (sanofi-aventis, priority 2005, dated 2010)

Columns and labels:
Human TASK-1 channels = Human TASK-1 channels (UniProt O35111); assay: Activity on the TASK-1 channel: two-microelectrode voltage clamp on Xenopus oocytes expressing TASK-1; type: cell-based; settings: TASK-1 expressed in Xenopus oocytes, room temperature, Hill equation; read-out: mTask-1 IC-50
Human Kv1.5 channels = molecular target: T1, Human Kv1.5 channels (Homo sapiens, UniProt P22460); assay: Activity on the Kv1.5 channel: two-microelectrode voltage clamp on Xenopus oocytes expressing Kv1.5; type: cell-based; settings: human Kv1.5 expressed in Xenopus oocytes, room temperature, Hill equation; read-out: Kv1.5 IC-50
T1 construct: expressed in transfected cells; host or cells: Xenopus laevis oocytes injected with RNA synthesized in vitro
Method: Determination of the Activity on the Kv1.5 Channel
Human Kv1.5 channels were expressed in xenopus oocytes. For this purpose, firstly oocytes were isolated from Xenopus laevis and defolliculated. Kv1.5-encoding RNA synthesized in vitro was then injected into these oocytes. After Kv1.5 protein expression for 1-7 days, Kv1.5 currents were measured on the oocytes using the two-microelectrode voltage clamp technique. The Kv1.5 channels were in this case usually activated with voltage jumps lasting 500 ms to 0 mV and 40 mV. A solution of the following composition flowed through the bath: NaCl 96 mM, KCl 2 mM, CaCl2 1.8 mM, MgCl2 1 mM, HEPES 5 mM (titrated to pH 7.4 with NaOH). These experiments were carried out at room temperature. The following were employed for data acquisition and analysis: Geneclamp amplifier (Axon Instruments, Foster City, USA) and MacLab D/A converter and software (ADInstruments, Castle Hill, Australia). The substances of the invention were tested by adding them in various concentrations to the bath solution. The effects of the substances were calculated as percent inhibition of the Kv1.5 control current which was obtained when no substance was added to the solution. The data were then extrapolated using the Hill equation in order to determine the inhibitory concentrations IC50 for the respective substances.

T1 sequence (P22460 whole entry): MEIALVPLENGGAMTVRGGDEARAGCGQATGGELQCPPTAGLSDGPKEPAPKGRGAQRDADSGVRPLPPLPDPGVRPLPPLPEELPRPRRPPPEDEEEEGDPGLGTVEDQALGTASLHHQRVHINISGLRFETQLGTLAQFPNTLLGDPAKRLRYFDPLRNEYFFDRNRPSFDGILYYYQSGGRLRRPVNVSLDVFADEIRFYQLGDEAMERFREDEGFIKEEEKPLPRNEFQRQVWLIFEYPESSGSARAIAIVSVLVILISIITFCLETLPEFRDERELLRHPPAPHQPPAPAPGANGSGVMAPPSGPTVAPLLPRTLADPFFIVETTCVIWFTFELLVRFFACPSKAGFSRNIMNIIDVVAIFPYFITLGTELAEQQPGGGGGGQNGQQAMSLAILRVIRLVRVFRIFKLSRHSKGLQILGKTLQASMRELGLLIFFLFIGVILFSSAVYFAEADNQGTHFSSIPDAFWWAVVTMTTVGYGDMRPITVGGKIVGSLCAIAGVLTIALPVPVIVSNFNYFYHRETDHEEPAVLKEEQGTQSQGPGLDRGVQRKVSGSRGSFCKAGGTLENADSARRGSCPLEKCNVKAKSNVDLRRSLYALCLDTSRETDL

SMILES	IC50 (Human TASK-1 channels) [µM]	IC50 (Human Kv1.5 channels) [µM]
N#Cc1ccc(O[C@@H](c2cccc3cccnc23)[C@@H](c2ccc(F)cc2)N2CCCC2=O)cc1 (racemic) [Example 9, 4-[(1S′,2R′)-2-(4-Fluorophenyl)-2-(2-oxopyrrolidin-1-yl)-1-quinolin-8-ylethoxy]benzonitrile]	0.4	4.2
CO[C@H](c1ccc(Cl)cc1)[C@H](c1ccccc1)N1CCCC1=O (racemic) [Example 46]	5.4	1.5
N#Cc1ccc(O[C@H](c2ccc(F)c(F)c2)[C@H](c2ccc(F)cc2)N2CCCC2=O)cc1 (racemic) [Example 4, 4-[(1R′,2S′)-1-(3,4-Difluorophenyl)-2-(4-fluorophenyl)-2-(2-oxopyrrolidin-1-yl)ethoxy]benzonitrile]	2.3	3.9
N#Cc1ccc(O[C@@H](c2cccc3ccccc23)[C@H](c2ccc(F)cc2)N2CCCC2=O)cc1 (racemic) [Example 89]		3.5
O=C1CCCN1[C@@H](c1ccccc1)[C@H](OCc1ccccc1)c1ccc(Cl)cc1 (racemic) [Example 72]		2.1
O=C1CCCN1[C@@H](c1ccc(F)cc1)[C@H](OCC1CC1)c1ccc(OC(F)(F)F)cc1 (racemic) [Example 50]		0.9
O=C1CCCN1[C@@H](c1ccccc1)[C@H](OCC1CC1)c1ccc(F)cc1 (racemic) [Example 44]		0.5
CCCOC(c1ccc(OC)cc1)C(c1ccccc1)N1CCCC1=O (centres unmarked) [Example 23]		0.65
CCCO[C@H](c1ccccn1)[C@H](c1ccccc1)N1CCCC1=O (racemic) [Example 76]		2.7
COc1ccc([C@@H](Oc2ccc(C(C)=O)cc2)[C@H](c2ccc(F)cc2)N2CCCC2=O)cc1 (racemic) [Example 110]		9.7
O=C1CCCN1[C@@H](c1cccnc1)[C@H](OCC1CC1)c1ccc(F)cc1 (racemic) [Example 16]		0.8
